{"source": "paper PMC9127750", "about": "“Structure-based design of CDC42 effector interaction inhibitors for the treatment of cancer” (Cell reports, 2022)", "test_system": "WM3248 melanoma cells, 486 antibodies", "experiment": "Reverse phase protein arrays (RPPA);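 on Cyclin.E1.R.V RPPA level: ratio of treated to vehicle (0 µM) normalized linear protein signal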;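 on DDB.1.R.V RPPA level: ratio of treated to vehicle (0 µM) normalized linear protein signal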", "format": "cell-based, Human", "details": "20 uM", "from_the_text": "Pellets were snap frozen in liquid nitrogen and shipped to MD Anderson Cancer Center core RPPA facility for RPPA analysis (Table S5). Three biological replicates for each sample were generated.\nNomenclatures on the RPPA heatmaps: name_of_antibody.species_of_antibody.status_of_antibody. V - antibody validated; C - validation of antibody in progress; Q - antibody nonspecific; E – under evaluation; antibodies raised in M - mouse, G - goat, R - rabbit, or T - rat.", "note": "Where “and” joins values, the source holds several entries; their conditions need not be identical. Identical values can stand only once.", "data": [{"smiles": "CN(C)c1cccc(Nc2cc(-c3ccccc3)nc(C3CCNCC3)n2)c1", "note": "[ARN22089, N1,N1-dimethyl-N3-(6-phenyl-2-(piperidin-4-yl)pyrimidin-4-yl)benzene-1,3-diamine]", "values": [{"measurement": "Cyclin.D3.M.V RPPA level", "setting": "replicates", "value": "0.858 and 0.793 and 0.870"}, {"measurement": "Cyclin.E1.R.V RPPA level", "setting": "replicates", "value": "1.034 and 0.978 and 0.864"}, {"measurement": "Cyclophilin.F.M.V RPPA level", "setting": "replicates", "value": "1.052 and 0.867 and 0.858"}, {"measurement": "D.a.Tubulin.R.V RPPA level", "setting": "replicates", "value": "0.908 and 1.131 and 1.049"}, {"measurement": "DAPK1_pS308.M.C RPPA level", "setting": "replicates", "value": "1.387 and 1.152"}, {"measurement": "DAPK2.R.C RPPA level", "setting": "replicates", "value": "0.896 and 1.008 and 1.104"}, {"measurement": "DDB.1.R.V RPPA level", "setting": "replicates", "value": "1.000 and 0.862 and 0.981"}, {"measurement": "DDR1.R.V RPPA level", "setting": "replicates", "value": "1.126 and 0.892 and 0.988"}, {"measurement": "DDR1_pY513.R.C RPPA level", "setting": "replicates", "value": "1.221 and 1.216 and 0.940"}, {"measurement": "DJ1.R.V RPPA level", "setting": "replicates", "value": "0.994 and 0.831 and 1.019"}, {"measurement": "DM.Histone.H3.R.V RPPA level", "setting": "replicates", "value": "4.051 and 0.967"}, {"measurement": "DM.K9.Histone.H3.M.V RPPA level", "setting": "replicates", "value": "1.226 and 2.170 and 0.946"}, {"measurement": "DNA.Ligase.IV.R.C RPPA level", "setting": "replicates", "value": "0.890 and 0.918 and 1.135"}, {"measurement": "DNA_POLG.R.V RPPA level", "setting": "replicates", "value": "1.260 and 0.956 and 0.859"}, {"measurement": "c.Jun_pS73.R.V RPPA level", "setting": "replicates", "value": "0.959 and 1.053 and 0.897"}, {"measurement": "c.Kit.R.V RPPA level", "setting": "replicates", "value": "1.404 and 1.046 and 0.973"}, {"measurement": "c.Met_pY1234_Y1235.R.V RPPA level", "setting": "replicates", "value": "0.958 and 1.104 and 1.130"}, {"measurement": "c.Myc.R.C RPPA level", "setting": "replicates", "value": "0.956 and 0.888 and 0.971"}, {"measurement": "cGAS.R.V RPPA level", "setting": "replicates", "value": "1.158 and 0.984"}, {"measurement": "cdc2_pY15.R.C RPPA level", "setting": "replicates", "value": "0.840 and 1.245 and 1.217"}, {"measurement": "cdc25C.R.V RPPA level", "setting": "replicates", "value": "0.813 and 0.749 and 1.085"}, {"measurement": "RPPA MYH11.R.C", "setting": "single replicates", "value": "1.235 and 1.080 and 0.987"}, {"measurement": "RPPA Myosin.IIa.R.C", "setting": "single replicates", "value": "0.819 and 0.811 and 1.194"}, {"measurement": "RPPA Myosin.IIa_pS1943.R.V", "setting": "single replicates", "value": "1.011 and 0.857 and 1.050"}, {"measurement": "RPPA Myt1.R.C", "setting": "single replicates", "value": "0.843 and 1.001 and 1.193"}, {"measurement": "RPPA N.Cadherin.R.V", "setting": "single replicates", "value": "1.047 and 1.081 and 0.976"}, {"measurement": "RPPA N.Ras.M.V", "setting": "single replicates", "value": "0.921 and 0.893 and 0.971"}, {"measurement": "RPPA NAPSIN.A.R.C", "setting": "single replicates", "value": "0.982 and 1.016 and 1.141"}, {"measurement": "RPPA NDRG1_pT346.R.V", "setting": "single replicates", "value": "0.868 and 0.915 and 1.192"}, {"measurement": "RPPA NDUFB4.R.V", "setting": "single replicates", "value": "1.100 and 0.998 and 0.982"}, {"measurement": "RPPA NRF2.R.C", "setting": "single replicates", "value": "0.849 and 0.982 and 0.977"}, {"measurement": "RPPA Notch1.R.V", "setting": "single replicates", "value": "1.052 and 1.121 and 0.952"}, {"measurement": "RPPA Notch1.cleaved.R.V", "setting": "single replicates", "value": "0.740 and 0.849 and 1.080"}, {"measurement": "RPPA Notch3.R.C", "setting": "single replicates", "value": "1.026 and 1.150 and 0.931"}, {"measurement": "RPPA Oct.4.R.C", "setting": "single replicates", "value": "0.991 and 1.164 and 1.209"}, {"measurement": "RPPA P.Cadherin.R.C", "setting": "single replicates", "value": "1.264 and 1.125"}, {"measurement": "RPPA PAI.1.M.V", "setting": "single replicates", "value": "1.005 and 1.281 and 0.932"}, {"measurement": "RPPA PAICS.R.C", "setting": "single replicates", "value": "0.803 and 0.811 and 1.058"}, {"measurement": "RPPA PAK1.R.V", "setting": "single replicates", "value": "0.820 and 0.886 and 1.049"}, {"measurement": "RPPA PAK4.R.V", "setting": "single replicates", "value": "1.076 and 0.939"}, {"measurement": "RPPA PAK_pS474_S602_S560.R.V", "setting": "single replicates", "value": "1.380 and 1.298 and 0.931"}, {"measurement": "RPPA PAK_pT423_T402.R.C", "setting": "single replicates", "value": "1.015 and 1.053 and 0.971"}, {"measurement": "RPPA PAR.R.C", "setting": "single replicates", "value": "0.974 and 1.464 and 0.714"}, {"measurement": "RPPA PARG.R.C", "setting": "single replicates", "value": "1.599 and 1.316 and 1.014"}, {"measurement": "RPPA PARP.R.V", "setting": "single replicates", "value": "0.538 and 1.057 and 1.348"}, {"measurement": "RPPA PAX6.R.V", "setting": "single replicates", "value": "1.001 and 1.058 and 0.982"}, {"measurement": "RPPA PAX8.R.C", "setting": "single replicates", "value": "1.024 and 0.925 and 0.962"}, {"measurement": "RPPA PCNA.M.C", "setting": "single replicates", "value": "0.783 and 0.854 and 0.955"}, {"measurement": "RPPA PD.1.R.V", "setting": "single replicates", "value": "1.098 and 1.052 and 0.984"}, {"measurement": "RPPA PD.L1.R.C", "setting": "single replicates", "value": "0.895 and 1.054 and 1.001"}, {"measurement": "RPPA PDH.M.V", "setting": "single replicates", "value": "0.970 and 1.058 and 0.953"}, {"measurement": "RPPA PDHA1.R.V", "setting": "single replicates", "value": "0.972 and 1.004 and 1.113"}, {"measurement": "RPPA PDHK1.R.C", "setting": "single replicates", "value": "0.803 and 0.959 and 1.129"}, {"measurement": "RPPA PDK1.R.V", "setting": "single replicates", "value": "1.000 and 1.250"}, {"measurement": "RPPA PDK1_pS241.R.V", "setting": "single replicates", "value": "0.916 and 0.898 and 1.103"}, {"measurement": "RPPA PEA.15.R.V", "setting": "single replicates", "value": "0.986 and 0.870 and 0.999"}, {"measurement": "RPPA PEA.15_pS116.R.V", "setting": "single replicates", "value": "1.029 and 0.986"}, {"measurement": "RPPA PERK.R.V", "setting": "single replicates", "value": "1.320 and 0.802 and 0.841"}, {"measurement": "RPPA PGM1.R.V", "setting": "single replicates", "value": "0.846 and 0.933"}, {"measurement": "RPPA PHGDH.R.C", "setting": "single replicates", "value": "0.989 and 0.962"}, {"measurement": "RPPA PHLPP.R.V", "setting": "single replicates", "value": "1.674 and 0.930 and 0.767"}, {"measurement": "RPPA PI3K.p85.R.C", "setting": "single replicates", "value": "1.023 and 0.792 and 0.886"}, {"measurement": "RPPA PI3K.p110.a.R.C", "setting": "single replicates", "value": "0.804 and 0.921"}, {"measurement": "RPPA PI3K.p110.b.M.C", "setting": "single replicates", "value": "0.988 and 0.918 and 0.941"}, {"measurement": "RPPA PKA.a.R.V", "setting": "single replicates", "value": "0.974 and 0.780 and 1.028"}, {"measurement": "RPPA PKC.a.b.II_pT638_T641.R.V", "setting": "single replicates", "value": "0.684 and 0.941 and 1.154"}, {"measurement": "RPPA PKC.b.II_pS660.R.V", "setting": "single replicates", "value": "0.997 and 1.114 and 1.126"}, {"measurement": "RPPA PKCa.R.V", "setting": "single replicates", "value": "0.630 and 2.106 and 1.942"}, {"measurement": "RPPA PKM2.R.C", "setting": "single replicates", "value": "0.846 and 0.763"}, {"measurement": "RPPA PLC.gamma1.R.V", "setting": "single replicates", "value": "1.296 and 0.944 and 0.963"}, {"measurement": "RPPA PLC.gamma1_pS1248.R.V", "setting": "single replicates", "value": "0.837 and 0.893 and 0.954"}, {"measurement": "RPPA PLC.gamma2_pY759.R.V", "setting": "single replicates", "value": "1.000 and 1.004 and 0.945"}, {"measurement": "RPPA PLK1.R.C", "setting": "single replicates", "value": "1.107 and 0.592 and 1.060"}, {"measurement": "RPPA PMS2.R.V", "setting": "single replicates", "value": "1.016 and 0.991 and 0.952"}, {"measurement": "RPPA PR.R.V", "setting": "single replicates", "value": "0.957 and 0.966 and 0.945"}, {"measurement": "RPPA PRAS40.M.C", "setting": "single replicates", "value": "1.496 and 1.229 and 0.955"}, {"measurement": "RPPA PRAS40_pT246.R.V", "setting": "single replicates", "value": "1.099 and 1.166"}, {"measurement": "RPPA PRC1_pT481.R.C", "setting": "single replicates", "value": "1.163 and 1.114 and 0.975"}, {"measurement": "RPPA PREX1.R.V", "setting": "single replicates", "value": "0.874 and 0.851 and 1.124"}, {"measurement": "RPPA PTEN.R.V", "setting": "single replicates", "value": "1.018 and 1.109 and 1.120"}, {"measurement": "RPPA PTPN12.R.V", "setting": "single replicates", "value": "1.234 and 1.447"}]}]}
